Consider 35 molecules from US20220348592A1, “FUSED HETEROCYCLIC DERIVATIVES” (Janssen Sciences Ireland Unlimited Company, priority 2019, published 2022).

Series [1] has as its system HBV. Nature of the series: Anti-HBV activity: intracellular HBV DNA by real-time PCR in HepG2.117 cell line. Type of series: cell-based, Hepatitis B virus. Conditions: Hepatitis B virus, 72 h; HepG2.117 cells, 3 days of treatment, intracellular HBV DNA by real-time PCR, mean value; read-out: HBV-AVE-HepG2.117 EC50 (μM, mean value). A digest of the protocol:
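HepG2.117 cells, a Tet-off inducible HBV-producing line, induced to replicate HBV and then treated with serially diluted compound. After 3 days, intracellular HBV DNA quantified by real-time PCR with HBV-specific primers and probe.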
Background: Quantitative PCR measures a nucleic acid by following its amplification.

A short description of series [2]: Cytotoxicity in HepG2.117 cells, ATPlite Luminescence Assay. Type of series: cell-based, human. The note with it: human, incubated for 3 days, mean value, read-out: TOX-HepG2.117 CC50 (μM, mean value). The procedure: Cytotoxicity of the compounds was tested using HepG2 or HepG2.117 cells, incubated for 3 days in the presence of compounds. The viability of the cells was assessed using the PERKIN ELMER ATPlite Luminescence Assay System.”
A general note: In ATP-based viability assays light output follows the ATP content of the culture.

As to `COc1ccc(CN2CCn3nc4c(c3C2=O)CN(C(=O)c2ccc(Cl)c(C(F)F)c2)CC4)cc1` [Example C57], in series [1], the EC50 turned out to be 0.04 µM. Besides, the CC50 at 3 days in series [2] amounted to 18.9 µM.

Take `COc1ccc(CCN2CCn3nc4c(c3C2=O)CN(C(=O)c2ccc(Cl)c(Cl)c2)[C@H](C)C4)cc1` [Example C58]: in series [1], the EC50 was found to be 0.531 µM. Also, in series [2], the CC50 at 3 days was 18 µM.

For `C[C@@H]1Cc2nn3c(c2CN1C(=O)c1ccc(Cl)c(Cl)c1)C(=O)N(Cc1ncccn1)CC3` [Example C60], in series [1], the EC50 was determined as 0.565 µM. In addition, the CC50 at 3 days in series [2] is over 50 µM.

`COc1ccc(CN2CCn3nc4c(c3C2=O)CN(C(=O)c2ccc(C(F)F)c(Cl)c2)CC4)cc1` [Example C62]: the EC50 in series [1] was found to be 0.13 µM. Also, the CC50 at 3 days in series [2] amounted to 9.31 µM.

Regarding `COc1ccc(CN2CCn3nc4c(c3C2=O)CN(C(=O)c2ccc(Cl)c(C#N)c2)CC4)cc1` [Example C64], the EC50 in series [1] came out at 0.089 µM. Also, the CC50 at 3 days in series [2] is over 49 µM.

In the case of `C[C@@H]1Cc2nn3c(c2CN1C(=O)c1ccc(Cl)c(Cl)c1)C(=O)N(Cc1cnccn1)CC3` [Example C65], in series [1], the EC50 worked out at 0.299 µM. In series [2], the CC50 at 3 days is over 50 µM.

As for `C[C@@H]1Cc2nn3c(c2CN1C(=O)c1ccc(Cl)c(Cl)c1)C(=O)N(Cc1cccc(OC(F)F)c1)CC3` [Example C66], the EC50 in series [1] turned out to be 0.042 µM. In series [2], the CC50 at 3 days was found to be 9.18 µM.

As for `C[C@@H]1Cc2nn3c(c2CN1C(=O)c1ccc(Cl)c(Cl)c1)C(=O)N(Cc1ccccc1OC(F)F)CC3` [Example C67], in series [1], the EC50 worked out at 0.07 µM. For the same molecule, the CC50 at 3 days in series [2] came to 22.5 µM.

Turning to `COc1ccc(CN2CCn3nc4c(c3C2=O)CN(C(=O)c2ccc(C(F)F)c(F)c2)CC4)cc1` [Example C68], the EC50 in series [1] turned out to be 0.321 µM. Also, in series [2], the CC50 at 3 days was determined as 10.6 µM.

On to `C[C@@H]1Cc2nn3c(c2CN1C(=O)c1ccc(Cl)c(Cl)c1)C(=O)N(Cc1ccc(OC(F)F)cn1)CC3` [Example C69], for which, in series [1], the EC50 turned out to be 0.063 µM. For the same molecule, in series [2], the CC50 at 3 days stood at 14.5 µM.

Take `COc1ccc(CN2CCn3nc4c(c3C2=O)CN(C(=O)c2ccc(C(F)F)c(C#N)c2)CC4)cc1` [Example C70]: in series [1], the EC50 turned out to be 0.232 µM. Also, in series [2], the CC50 at 3 days is over 50 µM.

Turning to `O=C(c1ccc(Cl)cc1F)N1CCc2nn3c(c2C1)C(=O)N(Cc1ccccn1)CC3` [Example C72], the EC50 in series [1] was over 2.5 µM. For the same molecule, the CC50 at 3 days in series [2] was over 50 µM.

For the molecule `O=C(c1cnc(Cl)c(Cl)c1)N1CCc2nn3c(c2C1)C(=O)N(Cc1ccccn1)CC3` [Example C73], the EC50 in series [1] was over 2.5 µM. In addition, in series [2], the CC50 at 3 days is over 50 µM.

Take `Cc1cc(Cl)ccc1C(=O)N1CCc2nn3c(c2C1)C(=O)N(Cc1ccccn1)CC3` [Example C74]: the EC50 in series [1] was over 2.5 µM. Further, the CC50 at 3 days in series [2] is over 50 µM.

As to `COc1cc(Cl)ccc1C(=O)N1CCc2nn3c(c2C1)C(=O)N(Cc1ccccn1)CC3` [Example C76], the EC50 in series [1] turned out to be 0.983 µM. Further, in series [2], the CC50 at 3 days is over 25 µM.

Turning to `O=C(c1ccc(Cl)c(F)c1)N1CCc2nn3c(c2C1)C(=O)N(Cc1ccccn1)CC3` [Example C78], in series [1], the EC50 amounted to 0.707 µM. Also, the CC50 at 3 days in series [2] was over 50 µM.

`C[C@@H]1Cc2nn3c(c2CN1C(=O)c1ccc(Cl)c(Cl)c1)C(=O)N(Cc1ccccc1F)CC3` [Example C80]: the EC50 in series [1] was 0.05 µM. Besides, the CC50 at 3 days in series [2] was 26.1 µM.

With `C[C@@H]1Cc2nn3c(c2CN1C(=O)c1ccc(Cl)c(Cl)c1)C(=O)N(Cc1ccc(C#N)cc1)CC3` [Example C82], the EC50 in series [1] turned out to be 0.019 µM. Besides, the CC50 at 3 days in series [2] came to 32.5 µM.

As to `O=C(c1ccc(Cl)c(Cl)c1)N1CCc2nn3c(c2C1)C(=O)N(Cc1ccccn1)CCC3` [Example C83, 2-(3,4-dichlorobenzoyl)-10-(pyridin-2-ylmethyl)-1,2,3,4,7,8,9,10-octahydro-11H-pyrido[4′,3′:3,4]pyrazolo[1,5-a][1,4]diazepin-11-one], the EC50 in series [1] stood at 0.229 µM. The CC50 at 3 days in series [2] is over 50 µM.

For `COc1ccc(C(C)N2CCn3nc4c(c3C2=O)CN(C(=O)c2ccc(Cl)c(Cl)c2)[C@H](C)C4)cc1F` (stereo partly shown) [Example C86], the EC50 in series [1] was 0.046 µM. For the same molecule, in series [2], the CC50 at 3 days is over 50 µM.

Turning to `CC(c1cc[nH]n1)N1CCn2nc3c(c2C1=O)CN(C(=O)c1ccc(Cl)c(Cl)c1)[C@H](C)C3` (stereo partly shown) [Example C87], the EC50 in series [1] came to 0.066 µM. Moreover, the CC50 at 3 days in series [2] was over 50 µM.

Consider `CC(c1ccc(C#N)cc1)N1CCn2nc3c(c2C1=O)CN(C(=O)c1ccc(Cl)c(Cl)c1)[C@H](C)C3` (stereo partly shown) [Example C88], for which the EC50 in series [1] is 0.038 µM. The half-maximal cytotoxic concentration (CC50) at 3 days in series [2] was over 48 µM.

Regarding `C[C@@H]1Cc2nn3c(c2CN1C(=O)c1ccc(Cl)c(Cl)c1)C(=O)N(C(C)(C)c1ccc(OC(F)F)cc1)CC3` [Example C90], the half-maximal effective concentration (EC50) in series [1] amounted to 0.667 µM. In series [2], the CC50 at 3 days worked out at 21.9 µM.

With `C[C@@H]1Cc2nn3c(c2CN1C(=O)c1ccc(Cl)c(Cl)c1)C(=O)N(Cc1ccc(Cl)nc1)CC3` [Example C91], in series [1], the EC50 was 0.083 µM. Further, the CC50 at 3 days in series [2] was 36.7 µM.

In the case of `COc1ccc(C(C)N2CCn3nc4c(c3C2=O)CN(C(=O)c2ccc(Cl)c(Cl)c2)[C@H](C)C4)cc1OC` (stereo partly shown) [Example C92], in series [1], the EC50 turned out to be 0.025 µM. In addition, the CC50 at 3 days in series [2] is 24.4 µM.

`CC(c1ccccc1)N1CCn2nc3c(c2C1=O)CN(C(=O)c1ccc(Cl)c(Cl)c1)[C@H](C)C3` (stereo partly shown) [Example C93]: the EC50 in series [1] was 0.055 µM. In addition, the CC50 at 3 days in series [2] was determined as 30 µM.

Take `C[C@@H]1Cc2nn3c(c2CN1C(=O)c1cc2c(Cl)c(Cl)ccc2[nH]1)C(=O)N(Cc1ccccn1)CC3` [Example C94, (R)-2-(4,5-dichloro-1H-indole-2-carbonyl)-3-methyl-9-(pyridin-2-ylmethyl)-1,2,3,4,8,9-hexahydropyrido[4′,3′:3,4]pyrazolo[1,5-a]pyrazin-10(7H)-one]: the EC50 in series [1] worked out at 0.162 µM. The CC50 at 3 days in series [2] came out at 4.77 µM.

For the molecule `C[C@@H]1Cc2nn3c(c2CN1C(=O)c1ccc(Cl)c(Cl)c1)C(=O)N(Cc1cccc(F)c1C#N)CC3` [Example C95], the EC50 in series [1] turned out to be 0.2 µM. Moreover, the CC50 at 3 days in series [2] is over 47 µM.

Turning to `C[C@@H]1Cc2nn3c(c2CN1C(=O)c1cc2c(Cl)cccc2[nH]1)C(=O)N(Cc1ccccn1)CC3` [Example C96], the EC50 in series [1] was determined as 0.025 µM. Further, the CC50 at 3 days in series [2] was determined as 10.7 µM.

As for `C[C@@H]1Cc2nn3c(c2CN1C(=O)c1cc2c(F)c(F)c(F)cc2[nH]1)C(=O)N(Cc1ccccn1)CC3` [Example C97], the EC50 in series [1] came out at 0.011 µM. Further, the CC50 at 3 days in series [2] amounted to 9.79 µM.

For `CC(c1ccc(Br)cc1)N1CCn2nc3c(c2C1=O)CN(C(=O)c1ccc(Cl)c(Cl)c1)[C@H](C)C3` (stereo partly shown) [Example C98], in series [1], the EC50 is 0.073 µM. Moreover, the CC50 at 3 days in series [2] amounted to 9.83 µM.

For `CC(c1ccccn1)N1CCn2nc3c(c2C1=O)CN(C(=O)c1ccc(Cl)c(Cl)c1)[C@H](C)C3` (stereo partly shown) [Example C99], the EC50 in series [1] was 0.072 µM. Further, the CC50 at 3 days in series [2] is over 50 µM.

On to `C[C@@H]1Cc2nn3c(c2CN1C(=O)c1cc2c(C#N)c(F)ccc2[nH]1)C(=O)N(Cc1ccccn1)CC3` [Example C100], for which the EC50 in series [1] was determined as 0.085 µM. Also, the CC50 at 3 days in series [2] came to 15.5 µM.

For `C[C@@H]1Cc2nn3c(c2CN1C(=O)c1cc2c(F)c(F)ccc2[nH]1)C(=O)N(Cc1ccccn1)CC3` [Example C101], in series [1], the EC50 came out at 0.036 µM. Also, the CC50 at 3 days in series [2] was found to be 8.95 µM.

Turning to `C[C@@H]1Cc2nn3c(c2CN1C(=O)c1cc2c(Cl)c(F)ccc2[nH]1)C(=O)N(Cc1ccccn1)CC3` [Example C102], the EC50 in series [1] was 0.019 µM. Moreover, the CC50 at 3 days in series [2] is 7.14 µM.

A word on the EC50: it is the concentration needed to bring the measured effect to its halfway point. As a reminder, the CC50 is the concentration at which the toxic effect on the cells reaches its halfway point.
